Measurements as given in the supplement of paper PMC4862054.

Legend:
Conditions in all cases: incubation time: 72 h
SK-BR-3 [1] = experiment: normalised response (% of control), CellTiter-Glo; higher = more viable cells (100 = DMSO, 0 = benzethonium chloride kill control)
Method in brief: (§1)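 Breast cancer cell lines, seeded at 20 µl suspension per well, were incubated for 72 h in 384-well plates containing compound at 5 concentrations. These concentrations rose in 10-fold steps over a 10,000-fold range set for each compound. CellTox Green fluorescence (485/520 nm) was read, then CellTiter-Glo luminescence after 10 min at room temperature, and each plate was normalised to 0.1 % DMSO (100) and a positive kill control (0). Values are normalised signals, each at one concentration.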

HCC1937 [2] = experiment: as above
Method in brief: as §1

HCC1599 [3] = experiment: as above
Method in brief: as §1

DU-4475 [4] = experiment: as above
Method in brief: as §1

HCC1143 [5] = experiment: as above
Method in brief: as §1

MDA-MB-231 [6] = experiment: as above
Method in brief: as §1

BT-474 [7] = experiment: as above
Method in brief: as §1

HDQ-P1 [8] = experiment: as above
Method in brief: as §1

MDA-MB-453 [9] = experiment: as above
Method in brief: as §1

MFM-223 [10] = experiment: as above
Method in brief: as §1

MDA-MB-436 [11] = experiment: as above
Method in brief: as §1

MDA-MB-468 [12] = experiment: as above
Method in brief: as §1

Hs578T [13] = experiment: as above
Method in brief: as §1

CAL-51 [14] = experiment: as above
Method in brief: as §1

MCF-10A = experiment: as above
Method in brief: as §1

CAL-85-1 [15] = experiment: as above
Method in brief: as §1

BT-549 [16] = experiment: as above
Method in brief: as §1

CAL-148 [17] = experiment: as above
Method in brief: as §1

CAL-120 [18] = experiment: as above
Method in brief: as §1

SK-BR-3 [19] = experiment: normalised viability (% of control), CellTiter-Blue; higher = more viable cells (100 = DMSO, 0 = benzethonium chloride kill control)
Experimental: (§2)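 DSRT, CellTiter-Blue viability, 72 h incubation. Signal is normalised to DMSO and benzethonium chloride controls. Value is the normalised response at dose 1.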

HCC1937 [20] = experiment: as above
Experimental: as §2

HCC1599 [21] = experiment: as above
Experimental: as §2

DU-4475 [22] = experiment: as above
Experimental: as §2

HCC1143 [23] = experiment: as above
Experimental: as §2

MDA-MB-231 [24] = experiment: as above
Experimental: as §2

BT-474 [25] = experiment: as above
Experimental: as §2

HDQ-P1 [26] = experiment: as above
Experimental: as §2

MDA-MB-453 [27] = experiment: as above
Experimental: as §2

MFM-223 [28] = experiment: as above
Experimental: as §2

MDA-MB-436 [29] = experiment: as above
Experimental: as §2

MDA-MB-468 [30] = experiment: as above
Experimental: as §2

Hs578T [31] = experiment: as above
Experimental: as §2

CAL-51 [32] = experiment: as above
Experimental: as §2

CAL-85-1 [33] = experiment: as above
Experimental: as §2

BT-549 [34] = experiment: as above
Experimental: as §2

CAL-148 [35] = experiment: as above
Experimental: as §2

CAL-120 [36] = experiment: as above
Experimental: as §2

For `OC[C@H]1O[C@@H](n2cnc3c2N=CNC[C@H]3O)C[C@@H]1O` [Pentostatin] (1 nM), the normalised response (SK-BR-3 [1]) was 108%, the normalised response (HCC1937 [2]) was 100% and the normalised response (HCC1599 [3]) was 121%. It also gave a normalised response (DU-4475 [4]) of 103%, a normalised response (HCC1143 [5]) of 103% and a normalised response (MDA-MB-231 [6]) of 98.8%. The normalised response (BT-474 [7]) was 98.7%, the normalised response (HDQ-P1 [8]) was 100% and the normalised response (MDA-MB-453 [9]) was 107%. For the same compound, the normalised response (MFM-223 [10]) was 99.8%, the normalised response (MDA-MB-436 [11]) was 83.4% and the normalised response (MDA-MB-468 [12]) was 101%. For the same compound, the normalised response (Hs578T [13]) was 98.4%, the normalised response (CAL-51 [14]) was 111% and the normalised response (MCF-10A) was 107%. For the same compound, the normalised response (CAL-85-1 [15]) was 94.8%, the normalised response (BT-549 [16]) was 93.8% and the normalised response (CAL-148 [17]) was 104%. It also gave a normalised response (CAL-120 [18]) of 96.7%, a normalised viability (SK-BR-3 [19]) of 86.8% and a normalised viability (HCC1937 [20]) of 81.8%. The normalised viability (HCC1599 [21]) was 114%, the normalised viability (DU-4475 [22]) was 102% and the normalised viability (HCC1143 [23]) was 96.9%. For the same compound, the normalised viability (MDA-MB-231 [24]) was 96.6%, the normalised viability (BT-474 [25]) was 82.4% and the normalised viability (HDQ-P1 [26]) was 108%. The normalised viability (MDA-MB-453 [27]) was 110%, the normalised viability (MFM-223 [28]) was 93.2% and the normalised viability (MDA-MB-436 [29]) was 99%. It also gave a normalised viability (MDA-MB-468 [30]) of 105%, a normalised viability (Hs578T [31]) of 109% and a normalised viability (CAL-51 [32]) of 89.3%. It also gave a normalised viability (CAL-85-1 [33]) of 99.5%, a normalised viability (BT-549 [34]) of 91.7% and a normalised viability (CAL-148 [35]) of 118%. It also gave a normalised viability (CAL-120 [36]) of 114%.

`N#CC[C@H](C1CCCC1)n1cc(-c2ncnc3[nH]ccc23)cn1` [Ruxolitinib] (1 nM) showed a normalised response (SK-BR-3 [1]) of 83.5%, a normalised response (HCC1937 [2]) of 92.8% and a normalised response (HCC1599 [3]) of 93.5%. It also gave a normalised response (DU-4475 [4]) of 91.9%, a normalised response (HCC1143 [5]) of 93.1% and a normalised response (MDA-MB-231 [6]) of 102%. For the same compound, the normalised response (BT-474 [7]) was 96.8%, the normalised response (HDQ-P1 [8]) was 93.5% and the normalised response (MDA-MB-453 [9]) was 94.4%. It also gave a normalised response (MFM-223 [10]) of 90.1%, a normalised response (MDA-MB-436 [11]) of 86.7% and a normalised response (MDA-MB-468 [12]) of 101%. The normalised response (Hs578T [13]) was 95.8%, the normalised response (CAL-51 [14]) was 120% and the normalised response (MCF-10A) was 82%. The normalised response (CAL-85-1 [15]) was 101%, the normalised response (BT-549 [16]) was 102% and the normalised response (CAL-148 [17]) was 92.8%. The normalised response (CAL-120 [18]) was 93.8%, the normalised viability (SK-BR-3 [19]) was 101% and the normalised viability (HCC1937 [20]) was 102%. For the same compound, the normalised viability (HCC1599 [21]) was 101%, the normalised viability (DU-4475 [22]) was 104% and the normalised viability (HCC1143 [23]) was 101%. For the same compound, the normalised viability (MDA-MB-231 [24]) was 82.5%, the normalised viability (BT-474 [25]) was 98.2% and the normalised viability (HDQ-P1 [26]) was 85.7%. It also gave a normalised viability (MDA-MB-453 [27]) of 101%, a normalised viability (MFM-223 [28]) of 98.8% and a normalised viability (MDA-MB-436 [29]) of 96.9%. The normalised viability (MDA-MB-468 [30]) was 96.6%, the normalised viability (Hs578T [31]) was 102% and the normalised viability (CAL-51 [32]) was 89.4%. For the same compound, the normalised viability (CAL-85-1 [33]) was 114%, the normalised viability (BT-549 [34]) was 89.9% and the normalised viability (CAL-148 [35]) was 94.5%. It also gave a normalised viability (CAL-120 [36]) of 106%.

In the case of `C=CC[C@@H]1/C=C(\C)C[C@H](C)C[C@H](OC)[C@H]2O[C@@](O)(C(=O)C(=O)N3CCCC[C@H]3C(=O)O[C@H](/C(C)=C/[C@@H]3CC[C@@H](O)[C@H](OC)C3)[C@H](C)[C@@H](O)CC1=O)[C@H](C)C[C@@H]2OC` [Tacrolimus] (1 nM), the normalised response (SK-BR-3 [1]) was 109%, the normalised response (HCC1937 [2]) was 98.8% and the normalised response (HCC1599 [3]) was 103%. The normalised response (DU-4475 [4]) was 102%, the normalised response (HCC1143 [5]) was 93.9% and the normalised response (MDA-MB-231 [6]) was 99.3%. It also gave a normalised response (BT-474 [7]) of 101%, a normalised response (HDQ-P1 [8]) of 118% and a normalised response (MDA-MB-453 [9]) of 110%. The normalised response (MFM-223 [10]) was 98.5%, the normalised response (MDA-MB-436 [11]) was 103% and the normalised response (MDA-MB-468 [12]) was 98.7%. It also gave a normalised response (Hs578T [13]) of 99.1%, a normalised response (CAL-51 [14]) of 93.1% and a normalised response (MCF-10A) of 106%. The normalised response (CAL-85-1 [15]) was 97.8%, the normalised response (BT-549 [16]) was 96.6% and the normalised response (CAL-148 [17]) was 103%. It also gave a normalised response (CAL-120 [18]) of 98%, a normalised viability (SK-BR-3 [19]) of 98.2% and a normalised viability (HCC1937 [20]) of 102%. It also gave a normalised viability (HCC1599 [21]) of 99.3%, a normalised viability (DU-4475 [22]) of 98.5% and a normalised viability (HCC1143 [23]) of 109%. It also gave a normalised viability (MDA-MB-231 [24]) of 102%, a normalised viability (BT-474 [25]) of 71% and a normalised viability (HDQ-P1 [26]) of 114%. For the same compound, the normalised viability (MDA-MB-453 [27]) was 107%, the normalised viability (MFM-223 [28]) was 116% and the normalised viability (MDA-MB-436 [29]) was 119%. The normalised viability (MDA-MB-468 [30]) was 110%, the normalised viability (Hs578T [31]) was 106% and the normalised viability (CAL-51 [32]) was 105%. The normalised viability (CAL-85-1 [33]) was 98.6%, the normalised viability (BT-549 [34]) was 109% and the normalised viability (CAL-148 [35]) was 110%. For the same compound, the normalised viability (CAL-120 [36]) was 111%.
